According to patent US20150167050A1, “Cancer Diagnosis by Measuring Polyisoprenylated Methylated Protein Methyl Esterase Activity” (Florida Agricultural and Mechanical University, priority 2013, published 2015):

Key:
PMPMEase [1] = conditions: cited from earlier work; for concentrations that inhibit PMPMEase: concentration range given in words only
PMPMEase [2] = assay: Inhibition of PMPMEase by drugs, curcumin, fatty acids and prostaglandins; format: biochemical; conditions: relative to arachidonic acid (AA)

| SMILES | concentrations that inhibit PMPMEase (PMPMEase [1]) | further results |
| --- | --- | --- |
| O=P1(N(CCCl)CCCl)NCCCO1 (stereo not drawn) [cyclophosphamide] | millimolar concentrations |  |
| CCCCC/C=C\C/C=C\C/C=C\C/C=C\CCCC(=O)O [arachidonic acid] | micromolar concentrations |  |
| CC/C(=C(\c1ccccc1)c1ccc(OCCN(C)C)cc1)c1ccccc1 [tamoxifen] | millimolar concentrations |  |
| CCCCC[C@H](O)/C=C/[C@H]1[C@H](O)CC(=O)[C@@H]1C/C=C\CCCC(=O)O [PGE2] |  | inhibition of PMPMEase at 1 mM (PMPMEase [1]; 1 mM): did not inhibit |
| COc1cc(/C=C/C(=O)CC(=O)/C=C/c2ccc(O)c(OC)c2)ccc1O [curcumin] | micromolar concentrations |  |
| CCCCC[C@H](O)/C=C/[C@H]1C=CC(=O)[C@@H]1C/C=C\CCCC(=O)O [Prostaglandin (PG) A2] |  | fold less potent than AA as PMPMEase inhibitor (PMPMEase [2]): 63 fold |
